# Results from patent US20230066011A1, “PYRROLOPYRIMIDINE DERIVATIVE, AND PHARMACEUTICAL COMPOSITION FOR PREVENTING OR TREATING PROTEIN KINASE-RELATED DISEASE COMPRISING SAME AS ACTIVE INGREDIENT” (VORONOI CO., LTD., priority 2019, published 2023).
# Assays:
# human GST-DYRK1A = target: T1, human GST-DYRK1A (Homo sapiens, UniProt Q13627); test: GST-DYRK1A enzyme inhibition, ADP-Glo kinase assay; format: biochemical; conditions: ATP 10 μM, GST-DYRK1A full length, read-out: DYRK1 IC50
# T1 construct: purified human GST-DYRK1A (full length, Thermo Scientifics) enzyme; purchased Thermo Scientifics
# Summary of the method: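 Full-length enzyme (10 ng) was incubated with 10 μM ATP and a specific substrate for 1 h at 25 °C in 40 mM Tris-HCl pH 7.4, 20 mM MgCl2, 0.5 mg/mL BSA, 50 μM DTT. Luminescence was read against a solvent control, and IC50 values were derived from 3 data sets.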
# human GST-CLK1 = target: T2, human GST-CLK1 (Homo sapiens, UniProt P49759); test: GST-CLK1 enzyme inhibition, ADP-Glo kinase assay; format: biochemical; conditions: ATP 10 μM, GST-CLK1 129-end
# T2 construct: purified human GST-CLK1 (129-end, SignalChem) enzyme; purchased SignalChem
# T2 sequence (P49759 129-484 limits assumed): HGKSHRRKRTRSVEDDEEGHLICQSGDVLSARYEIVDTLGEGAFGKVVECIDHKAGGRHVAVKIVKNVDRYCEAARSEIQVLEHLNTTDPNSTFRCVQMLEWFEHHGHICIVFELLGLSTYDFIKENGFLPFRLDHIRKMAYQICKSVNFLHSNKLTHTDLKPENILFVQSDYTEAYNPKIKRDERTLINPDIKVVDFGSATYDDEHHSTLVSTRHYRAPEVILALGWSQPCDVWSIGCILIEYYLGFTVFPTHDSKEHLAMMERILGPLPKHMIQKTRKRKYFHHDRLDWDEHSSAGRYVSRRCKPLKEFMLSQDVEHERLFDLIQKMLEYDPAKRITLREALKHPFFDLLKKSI
# Summary of the method: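 ADP-Glo luminescence read-out, relative to untreated solvent control, gave IC50 (nM) from triplicate data sets. Reactions ran an hour at 25° C with 3 ng GST-CLK1 (residues 129-end), 10 μM ATP and specific substrate in Tris-HCl pH 7.4 buffer with MgCl2, BSA and DTT.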
# MDA-MB-231 cell line = test: Inhibition of proliferation of MDA-MB-231 cancer cells (Cell Titer-Glo); format: cell-based; conditions: Homo sapiens, 72 hours
# Method: (§1) To evaluate an inhibitory effect on the proliferation of cancer cells, each of an MDA-MB-231 cell line (Korean Cell Line Bank #30026) and an MDA-MB-468 cell line as triple-negative breast cancer cell lines, and SHP-77 (ATCC #CRL-2195) as a small-cell lung cancer cell line was cultured in DMEM (HyClone #SH30243) or an RPMI medium (HyClone #SH3027.01) to analyze a cell growth rate. More specifically, a cell line was plated on a 96-well flat bottom plate (Corning #3903) at a density of 2,000 cells/100 μL per well, and then treated with 11 concentrations of the Example compound, a solution of which was diluted 3-fold so that a final concentration of the compound was 10.000000, 3.333333, 1.111111, 0.370370, 0.123457, 0.041152, 0.013717, 0.004572, 0.001524, 0.000508, and 0.000169 μM. After 72 hours, each of the culture media was treated with 100 μL of Cell Titer-Glo (Promega G7573), and then cultured at room temperature for 10 minutes. Then, a degree of luminescence was measured using a microplate reader. A GI50 value was calculated from the measured degree of luminescence using Prism (Version 8.2 GraphPad) software.
# SHP-77 = test: Inhibition of proliferation of SHP-77 cancer cells (Cell Titer-Glo); format: cell-based; conditions: Homo sapiens, SHP77, 72 hours
# Method: as §1
# LRRK2 (G2019S) = LRRK2 (G2019S) (Homo sapiens, UniProt Q5S007, G2019S); test: LRRK2 G2019S enzyme inhibition, ADP-Glo kinase assay; format: biochemical; parameters: purchased SignalChem L10-12GG; conditions: ATP 25 μM
# LRRK2 (G2019S), sequence (Q5S007 970-2527 G2019S limits assumed): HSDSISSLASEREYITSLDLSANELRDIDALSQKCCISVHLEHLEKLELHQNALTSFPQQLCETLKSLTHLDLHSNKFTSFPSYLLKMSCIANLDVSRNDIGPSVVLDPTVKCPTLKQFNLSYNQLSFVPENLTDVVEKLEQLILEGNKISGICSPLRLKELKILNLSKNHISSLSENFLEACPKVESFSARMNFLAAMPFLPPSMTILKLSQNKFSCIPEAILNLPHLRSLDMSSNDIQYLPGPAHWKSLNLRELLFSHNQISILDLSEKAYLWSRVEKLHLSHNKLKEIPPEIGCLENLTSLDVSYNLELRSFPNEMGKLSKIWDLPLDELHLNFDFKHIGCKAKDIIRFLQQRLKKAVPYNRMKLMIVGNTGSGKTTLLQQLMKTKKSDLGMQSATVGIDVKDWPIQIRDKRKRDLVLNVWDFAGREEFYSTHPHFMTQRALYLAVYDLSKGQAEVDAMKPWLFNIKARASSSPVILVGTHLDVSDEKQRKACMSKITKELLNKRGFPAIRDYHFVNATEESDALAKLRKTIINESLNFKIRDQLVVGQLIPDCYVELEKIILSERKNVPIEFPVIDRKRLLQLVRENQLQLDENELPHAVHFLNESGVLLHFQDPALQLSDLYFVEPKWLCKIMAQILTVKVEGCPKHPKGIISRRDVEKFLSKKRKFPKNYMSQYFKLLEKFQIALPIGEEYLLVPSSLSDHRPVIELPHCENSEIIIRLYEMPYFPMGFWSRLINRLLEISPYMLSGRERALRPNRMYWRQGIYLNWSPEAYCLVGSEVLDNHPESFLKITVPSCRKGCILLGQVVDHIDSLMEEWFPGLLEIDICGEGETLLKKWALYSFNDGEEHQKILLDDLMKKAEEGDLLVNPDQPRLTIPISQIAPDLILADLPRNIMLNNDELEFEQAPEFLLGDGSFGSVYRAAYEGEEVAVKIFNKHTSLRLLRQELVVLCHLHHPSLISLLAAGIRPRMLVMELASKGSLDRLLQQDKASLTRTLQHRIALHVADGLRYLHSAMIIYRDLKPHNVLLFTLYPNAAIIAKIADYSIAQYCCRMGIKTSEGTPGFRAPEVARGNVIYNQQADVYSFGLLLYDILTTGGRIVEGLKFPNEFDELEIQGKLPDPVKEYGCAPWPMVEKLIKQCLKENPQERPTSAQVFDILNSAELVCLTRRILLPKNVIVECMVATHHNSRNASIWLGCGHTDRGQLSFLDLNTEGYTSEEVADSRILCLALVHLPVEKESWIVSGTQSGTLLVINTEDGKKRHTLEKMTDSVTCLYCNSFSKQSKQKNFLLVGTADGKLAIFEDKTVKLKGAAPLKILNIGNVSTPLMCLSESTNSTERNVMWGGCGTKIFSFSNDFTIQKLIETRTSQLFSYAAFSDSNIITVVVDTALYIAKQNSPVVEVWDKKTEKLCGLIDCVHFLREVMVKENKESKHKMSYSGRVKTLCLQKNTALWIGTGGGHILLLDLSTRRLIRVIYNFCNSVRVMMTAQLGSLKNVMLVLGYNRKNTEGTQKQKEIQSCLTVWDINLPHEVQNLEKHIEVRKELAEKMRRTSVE
# Summary of the method: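 IC50 derived from luminescent ADP-Glo readout against untreated solvent control, twelve final compound concentrations from 50 μM downward. Reaction: recombinant human LRRK2 G2019S enzyme, 25 μM ATP, substrate, pH 7.4 Tris buffer with MgCl2/BSA/DTT, 25° C. for 2 hours.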
# LRRK2 = LRRK2 (Homo sapiens, UniProt Q5S007); test: LRRK2 enzyme inhibition, ADP-Glo kinase assay; format: biochemical; parameters: purchased Invitrogen PR8604B; conditions: ATP 10 μM
# LRRK2, sequence (Q5S007 970-2527 limits assumed): as the sequence (Q5S007 970-2527 G2019S limits assumed) above, with S1050G counted along it
# Summary of the method: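 ADP-Glo luminescent read-out of ADP formed by purified human LRRK2 enzyme (25 ng), 10 μM ATP, 0.2 μg substrate, 25° C for 2 h, Tris-HCl pH 7.4 buffer with MgCl2, BSA, DTT. Inhibition versus untreated solvent control over twelve final concentrations (50 μM downward) gives IC50.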
Structure (SMILES),IC50 (human GST-DYRK1A) [nM],IC50 (human GST-CLK1) [nM],GI50 (MDA-MB-231 cell line) [nM],GI50 (SHP-77) [nM],IC50 (LRRK2 (G2019S)) [nM],IC50 (LRRK2) [nM]
"COc1cc(S(=O)(=O)N2CCC(N3CCOCC3)CC2)ccc1Nc1nc(NCC(C)C)c2c(C#N)c[nH]c2n1 [Example 84, 4-(isobutylamino)-2-((2-methoxy-4-((4-morpholinopiperidin-1-yl)sulfonyl)phenyl)amino)-7H-pyrrolo[2,3-d]pyrimidine-5-carbonitrile]",301 to 1000,301 to 1000,< 50,< 50,< 100,
"COc1cc(S(=O)(=O)N2CCOCC2)ccc1Nc1nc(NCC(C)C)c2c(C#N)c[nH]c2n1 [Example 65, 4-(isobutylamino)-2-((2-methoxy-4-(morpholinosulfonyl)phenyl)amino)-7H-pyrrolo[2,3-d]pyrimidine-5-carbonitrile]",301 to 1000,301 to 1000,< 50,< 50,< 100,
"COCC(C)(C)Nc1nc(Nc2ccc(S(=O)(=O)N3CCC(N4CCOCC4)CC3)cc2OC)nc2[nH]cc(C#N)c12 [Example 93, 4-((1-methoxy-2-methylpropan-2-yl)amino)-2-((2-methoxy-4-((4-morpholinopiperidin-1-yl)sulfonyl)phenyl)amino)-7H-pyrrolo[2,3-d]pyrimidine-5-carbonitrile]",301 to 1000,101 to 300,< 50,< 50,,< 100
"COc1cc(S(=O)(=O)N2CCOCC2)ccc1Nc1nc(NCC(C)C)c2c(C(F)(F)F)c[nH]c2n1 [Example 192, N^4-isobutyl-N^2-(2-methoxy-4-(morpholinosulfonyl)phenyl)-5-(trifluoromethyl)-7H-pyrrolo[2,3-d]pyrimidine-2,4-diamine]",101 to 300,301 to 1000,301 to 1000,301 to 1000,,
"COCC(C)(C)Nc1nc(Nc2ccc(S(=O)(=O)N3CCOCC3)cc2OC)nc2[nH]cc(C#N)c12 [Example 78, 4-((1-methoxy-2-methylpropan-2-yl)amino)-2-((2-methoxy-4-(morpholinosulfonyl)phenyl)amino)-7H-pyrrolo[2,3-d]pyrimidine-5-carbonitrile]",301 to 1000,301 to 1000,< 50,< 50,,< 100
"CCCCNc1nc(Nc2ccc(S(=O)(=O)N3CCOCC3)cc2OC)nc2[nH]cc(C(F)(F)F)c12 [Example 207, N^4-butyl-N^2-(2-methoxy-4-(morpholinosulfonyl)phenyl)-5-(trifluoromethyl)-7H-pyrrolo[2,3-d]pyrimidine-2,4-diamine]",301 to 1000,301 to 1000,301 to 1000,301 to 1000,,
"COc1cc(S(=O)(=O)N2CCOCC2)ccc1Nc1nc(NCC2CCCC2)c2c(C#N)c[nH]c2n1 [Example 80, 4-(cyclo(pentylmethyl)amino)-2-((2-methoxy-4-(morpholinosulfonyl)phenyl)amino)-7H-pyrrolo[2,3-d]pyrimidine-5-carbonitrile]",301 to 1000,301 to 1000,101 to 300,51 to 100,< 100,
"COc1cc(S(=O)(=O)N2CCC(N3CCOCC3)CC2)ccc1Nc1nc(NC2CCCC2)c2c(C(F)(F)F)c[nH]c2n1 [Example 187, N^4-cyclopentyl-N^2-(2-methoxy-4-((4-morpholinopiperidin-1-yl)sulfonyl)phenyl)-5-(trifluoromethyl)-7H-pyrrolo[2,3-d]pyrimidine-2,4-diamine]",301 to 1000,301 to 1000,301 to 1000,301 to 1000,,< 100
"COc1cc(S(=O)(=O)N2CCOCC2)ccc1Nc1nc(NC2CCCC2)c2c(C(F)(F)F)c[nH]c2n1 [Example 186, N^4-cyclopentyl-N^2-(2-methoxy-4-(morpholinosulfonyl)phenyl)-5-(trifluoromethyl)-7H-pyrrolo[2,3-d]pyrimidine-2,4-diamine]",301 to 1000,301 to 1000,301 to 1000,301 to 1000,,101 to 300
"COc1cc(S(=O)(=O)N2CCOCC2)ccc1Nc1nc(NCC2CC2)c2c(C(F)(F)F)c[nH]c2n1 [Example 203, N^4-(cyclopropylmethyl)-N^2-(2-methoxy-4-(morpholinosulfonyl)phenyl)-5-(trifluoromethyl)-7H-pyrrolo[2,3-d]pyrimidine-2,4-diamine]",301 to 1000,101 to 300,301 to 1000,301 to 1000,,
"CC[C@@H](C)Nc1nc(Nc2ccc(S(=O)(=O)N3CCC(N4CCOCC4)CC3)cc2OC)nc2[nH]cc(C#N)c12 [Example 86, (R)-4-(sec-butylamino)-2-((2-methoxy-4-((4-morpholinopiperidin-1-yl)sulfonyl)phenyl)amino)-7H-pyrrolo[2,3-d]pyrimidine-5-carbonitrile]",301 to 1000,301 to 1000,< 50,< 50,,
"COc1cc(S(=O)(=O)N2CCOCC2)ccc1Nc1nc(NCC2CCC2)c2c(C(F)(F)F)c[nH]c2n1 [Example 200, N^4-(cyclobutylmethyl)-N^2-(2-methoxy-4-(morpholinosulfonyl)phenyl)-5-(trifluoromethyl)-7H-pyrrolo[2,3-d]pyrimidine-2,4-diamine]",301 to 1000,301 to 1000,301 to 1000,301 to 1000,,
"COc1cc(S(=O)(=O)N2CCOCC2)ccc1Nc1nc(NCC2CCCC2)c2c(C(F)(F)F)c[nH]c2n1 [Example 194, N^4-(cyclopentylmethyl)-N^2-(2-methoxy-4-(morpholinosulfonyl)phenyl)-5-(trifluoromethyl)-7H-pyrrolo[2,3-d]pyrimidine-2,4-diamine]",301 to 1000,301 to 1000,301 to 1000,301 to 1000,,
"CC[C@H](C)Nc1nc(Nc2ccc(S(=O)(=O)N3CCOCC3)cc2OC)nc2[nH]cc(C#N)c12 [Example 68, (S)-4-(sec-butylamino)-2-((2-methoxy-4-(morpholinosulfonyl)phenyl)amino)-7H-pyrrolo[2,3-d]pyrimidine-5-carbonitrile]",301 to 1000,301 to 1000,101 to 300,101 to 300,,
"COc1cc(S(=O)(=O)N2CCC(N3CCOCC3)CC2)ccc1Nc1nc(NCC2CC2)c2c(C#N)c[nH]c2n1 [Example 92, 4-((cyclopropylmethyl)amino)-2-((2-methoxy-4-((4-morpholinopiperidin-1-yl)sulfonyl)phenyl)amino)-7H-pyrrolo[2,3-d]pyrimidine-5-carbonitrile]",301 to 1000,301 to 1000,< 50,< 50,,< 100
"COc1cc(S(=O)(=O)N2CCC(N3CCOCC3)CC2)ccc1Nc1nc(NCC2CCCC2)c2c(C(F)(F)F)c[nH]c2n1 [Example 195, N^4-(cyclopentylmethyl)-N^2-(2-methoxy-4-((4-morpholinopiperidin-1-yl)sulfonyl)phenyl)-5-(trifluoromethyl)-7H-pyrrolo[2,3-d]pyrimidine-2,4-diamine]",301 to 1000,301 to 1000,301 to 1000,301 to 1000,,
"COc1cc(S(=O)(=O)N2CCOCC2)ccc1Nc1nc(N[C@@H]2CCOC2)c2c(C#N)c[nH]c2n1 [Example 74, (R)-2-((2-methoxy-4-(morpholinosulfonyl)phenyl)amino)-4-((tetrahydrofuran-3-yl)amino)-7H-pyrrolo[2,3-d]pyrimidine-5-carbonitrile]",301 to 1000,301 to 1000,101 to 300,101 to 300,,
